Experimental data taken from PubChem BioAssay (NCI).
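These data come from cells grown in 96-well plates and exposed to compound for 48 hours at five concentrations. TGI denotes the concentration required for complete inhibition of growth.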

System: SN12K1 renal
Assay: DTP human tumour cell line panel, 48 h

COC(=O)NC1C(C)OC(OC2C/C=C(/C)C3C=CC4C(OC5CC(OC6CCC(OC7CC(O)C(OC8CCC(O)C(C)O8)C(C)O7)C(C)O6)C(OC(C)=O)C(C)O5)C(C)CC(C)C4C3(C)/C(O)=C3/C(=O)OC4(CC(C=O)=CC(O)C4/C=C\2C)C3=O)CC1(C)[N+](=O)[O-] (stereo unspecified)
TGI: 753 nM
